Tests used:
[1] = system: Adrenergic α 2, Non-Selective; test: Radioligand binding panel (Table S1); set-up: species or system rat; conditions: 10 μM T1-11, n 2
[2] = molecular target: T1, APJ (Homo sapiens, UniProt P35414); test: Radioligand binding panel (Table S1); conditions: 10 μM T1-11, n 2
T1 construct: purchased MDS Pharma Services Taiwan

[3] = molecular target: T2, Bradykinin B2 (Homo sapiens, UniProt P30411); test: Radioligand binding panel (Table S1); conditions: 10 μM T1-11, n 2
T2 construct: purchased MDS Pharma Services Taiwan

[4] = molecular target: T3, Calcitonin (Homo sapiens, UniProt P30988); test: Radioligand binding panel (Table S1); conditions: 10 μM T1-11, n 2
T3 construct: purchased MDS Pharma Services Taiwan

[5] = system: Calcium Channel L-Type, Benzothiazepine; test: Radioligand binding panel (Table S1); set-up: species or system rat; conditions: 10 μM T1-11, n 2
[6] = molecular target: T4, Chemokine CCR1 (Homo sapiens, UniProt P32246); test: Radioligand binding panel (Table S1); conditions: 10 μM T1-11, n 2
T4 construct: purchased MDS Pharma Services Taiwan
T4 sequence (P32246 whole entry): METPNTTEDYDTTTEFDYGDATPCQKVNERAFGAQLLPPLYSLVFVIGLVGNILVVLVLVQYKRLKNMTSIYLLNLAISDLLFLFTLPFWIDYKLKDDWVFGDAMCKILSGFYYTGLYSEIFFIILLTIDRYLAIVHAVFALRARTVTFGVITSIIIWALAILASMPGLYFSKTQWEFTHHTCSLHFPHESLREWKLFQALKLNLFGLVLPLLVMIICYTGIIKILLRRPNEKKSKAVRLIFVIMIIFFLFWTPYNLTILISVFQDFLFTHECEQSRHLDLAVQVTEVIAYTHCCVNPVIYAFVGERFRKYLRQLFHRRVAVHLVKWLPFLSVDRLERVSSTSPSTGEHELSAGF

[7] = system: Chemokine CXCR1/2 (IL-8, Non-Selective); test: Radioligand binding panel (Table S1); set-up: species or system human; conditions: 10 μM T1-11, n 2
[8] = system: Colchicine; test: Radioligand binding panel (Table S1); set-up: species or system rat; conditions: 10 μM T1-11, n 2
Description: Radoligand binding assays were performed by MDS Pharma Services Taiwan (Taipei, Taiwan) using standard binding protocols. For the binding assay of the A2AR [67], membrane proteins collected from HEK293 cells overexpressing the human A2AR were incubated in reaction buffer [50 mM Tris-HCl (pH 7.4), 10 mM MgCl2, 1 mM EDTA, and 2 U/mL adenosine deaminase] containing ^3H-CGS21680 (50 nM) for 90 min at 25°C. Nonspecific binding was assessed in the presence of 50 µM adenosine- 5′-N-ethylcarboxamide. […] Nonspecific binding was assessed in the presence of 1 µM IB-MECA (Tocris Bioscience, Ellisville, MS, USA).

[9] = molecular target: T5, Cyclooxygenase COX-2 (Homo sapiens, UniProt P35354); test: Radioligand binding panel (Table S1); conditions: 10 μM T1-11, n 2
T5 construct: purchased MDS Pharma Services Taiwan
T5 sequence (P35354 18-604): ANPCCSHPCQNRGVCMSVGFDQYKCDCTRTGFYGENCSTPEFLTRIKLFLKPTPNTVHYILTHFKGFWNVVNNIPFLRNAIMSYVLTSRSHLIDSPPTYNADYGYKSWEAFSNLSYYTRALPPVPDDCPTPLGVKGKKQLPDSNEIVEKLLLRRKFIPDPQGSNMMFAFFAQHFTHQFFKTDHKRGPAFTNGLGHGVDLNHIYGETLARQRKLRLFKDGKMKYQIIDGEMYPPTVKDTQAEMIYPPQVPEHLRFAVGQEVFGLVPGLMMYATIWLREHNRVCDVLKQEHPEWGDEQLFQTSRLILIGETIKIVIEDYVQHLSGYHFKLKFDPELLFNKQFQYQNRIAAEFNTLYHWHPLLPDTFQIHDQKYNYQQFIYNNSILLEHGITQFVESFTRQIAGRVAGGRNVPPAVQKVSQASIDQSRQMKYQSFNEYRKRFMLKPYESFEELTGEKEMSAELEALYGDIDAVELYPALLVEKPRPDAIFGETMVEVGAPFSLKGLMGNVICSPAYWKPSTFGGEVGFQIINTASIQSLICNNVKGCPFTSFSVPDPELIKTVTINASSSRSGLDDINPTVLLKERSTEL

[10] = molecular target: T6, Dopamine D2L (Homo sapiens, UniProt P14416); test: Radioligand binding panel (Table S1); conditions: 10 μM T1-11, n 2
T6 construct: purchased MDS Pharma Services Taiwan

[11] = molecular target: T7, Endothelin ETB (Homo sapiens, UniProt P24530); test: Radioligand binding panel (Table S1); conditions: 10 μM T1-11, n 2
T7 construct: purchased MDS Pharma Services Taiwan

[12] = system: GABAA, Agonist Site; test: Radioligand binding panel (Table S1); set-up: species or system rat; conditions: 10 μM T1-11, n 2
[13] = molecular target: T8, Glucocorticoid (Homo sapiens, UniProt P04150); test: Radioligand binding panel (Table S1); conditions: 10 μM T1-11, n 2
T8 construct: purchased MDS Pharma Services Taiwan
T8 sequence (P04150 whole entry): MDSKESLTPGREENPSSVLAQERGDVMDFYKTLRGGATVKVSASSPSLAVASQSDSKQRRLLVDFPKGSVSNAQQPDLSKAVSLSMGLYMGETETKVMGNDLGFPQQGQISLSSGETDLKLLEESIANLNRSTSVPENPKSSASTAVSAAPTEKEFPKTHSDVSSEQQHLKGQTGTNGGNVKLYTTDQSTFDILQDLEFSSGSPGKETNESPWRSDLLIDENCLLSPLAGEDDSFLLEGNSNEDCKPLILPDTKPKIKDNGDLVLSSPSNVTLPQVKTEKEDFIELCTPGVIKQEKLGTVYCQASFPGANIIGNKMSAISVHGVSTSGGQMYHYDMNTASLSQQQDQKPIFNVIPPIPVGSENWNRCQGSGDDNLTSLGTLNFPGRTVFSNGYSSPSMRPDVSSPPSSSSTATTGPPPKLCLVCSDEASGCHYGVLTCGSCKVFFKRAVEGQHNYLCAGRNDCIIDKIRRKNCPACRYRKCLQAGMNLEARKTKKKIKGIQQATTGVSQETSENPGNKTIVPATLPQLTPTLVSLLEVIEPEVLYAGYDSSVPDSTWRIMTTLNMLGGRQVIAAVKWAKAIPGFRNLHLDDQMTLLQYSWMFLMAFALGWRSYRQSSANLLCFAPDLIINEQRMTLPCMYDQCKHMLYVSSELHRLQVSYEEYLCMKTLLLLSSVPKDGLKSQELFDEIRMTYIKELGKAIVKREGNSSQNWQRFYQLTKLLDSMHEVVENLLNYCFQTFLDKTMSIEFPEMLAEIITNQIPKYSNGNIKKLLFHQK

[14] = system: Glutamate, AMPA; test: Radioligand binding panel (Table S1); set-up: species or system rat; conditions: 10 μM T1-11, n 2
[15] = molecular target: Glutamate, NMDA, Glycine (Rattus norvegicus, UniProt P35439); test: Radioligand binding panel (Table S1); conditions: 10 μM T1-11, n 2
[16] = system: Glutamate, NMDA, Polyamine; test: Radioligand binding panel (Table S1); set-up: species or system rat; conditions: 10 μM T1-11, n 2
[17] = system: Glycine, Strychnine-Sensitive; test: Radioligand binding panel (Table S1); set-up: species or system rat; conditions: 10 μM T1-11, n 2
[18] = system: Imidazoline I2, Peripheral; test: Radioligand binding panel (Table S1); set-up: species or system rat; conditions: 10 μM T1-11, n 2
[19] = system: Inositol Trisphosphate IP3; test: Radioligand binding panel (Table S1); set-up: species or system rat; conditions: 10 μM T1-11, n 2
[20] = system: Insulin; test: Radioligand binding panel (Table S1); set-up: species or system rat; conditions: 10 μM T1-11, n 2
[21] = molecular target: T9, Lipoxygenase 12-LO (Homo sapiens, UniProt P18054); test: Radioligand binding panel (Table S1); conditions: 10 μM T1-11, n 2
T9 construct: purchased MDS Pharma Services Taiwan

[22] = molecular target: T10, Motilin (Homo sapiens, UniProt O43193); test: Radioligand binding panel (Table S1); conditions: 10 μM T1-11, n 2
T10 construct: purchased MDS Pharma Services Taiwan

[23] = molecular target: T11, Muscarinic M5 (Homo sapiens, UniProt P08912); test: Radioligand binding panel (Table S1); conditions: 10 μM T1-11, n 2
T11 construct: purchased MDS Pharma Services Taiwan
T11 sequence (P08912 whole entry): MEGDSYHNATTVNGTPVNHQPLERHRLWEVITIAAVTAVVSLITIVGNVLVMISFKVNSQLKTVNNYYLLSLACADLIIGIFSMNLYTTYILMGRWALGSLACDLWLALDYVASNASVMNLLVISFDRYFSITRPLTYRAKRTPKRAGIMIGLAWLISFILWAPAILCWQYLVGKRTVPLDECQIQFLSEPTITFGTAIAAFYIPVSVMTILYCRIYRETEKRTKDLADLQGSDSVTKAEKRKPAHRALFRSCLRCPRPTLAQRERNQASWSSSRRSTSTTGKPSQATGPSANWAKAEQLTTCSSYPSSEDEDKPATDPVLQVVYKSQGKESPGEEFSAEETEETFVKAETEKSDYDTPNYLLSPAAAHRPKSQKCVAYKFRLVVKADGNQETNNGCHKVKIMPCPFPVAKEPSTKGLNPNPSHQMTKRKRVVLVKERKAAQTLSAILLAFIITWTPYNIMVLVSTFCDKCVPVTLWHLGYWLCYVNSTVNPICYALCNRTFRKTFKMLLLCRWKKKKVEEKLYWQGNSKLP

[24] = system: Muscarinic, Oxotremorine-M; test: Radioligand binding panel (Table S1); set-up: species or system rat; conditions: 10 μM T1-11, n 2
[25] = molecular target: T12, Neuropeptide Y Y2 (Homo sapiens, UniProt P49146); test: Radioligand binding panel (Table S1); conditions: 10 μM T1-11, n 2
T12 construct: purchased MDS Pharma Services Taiwan

[26] = system: Nicotinic Acetylcholine; test: Radioligand binding panel (Table S1); set-up: species or system human; conditions: 10 μM T1-11, n 2
[27] = system: Opiate, Non-Selective; test: Radioligand binding panel (Table S1); set-up: species or system rat; conditions: 10 μM T1-11, n 2
[28] = molecular target: T13, Phosphodiesterase PDE3 (Homo sapiens, UniProt Q14432); test: Radioligand binding panel (Table S1); conditions: 10 μM T1-11, n 2
T13 construct: purchased MDS Pharma Services Taiwan
T13 sequence (Q14432 whole entry): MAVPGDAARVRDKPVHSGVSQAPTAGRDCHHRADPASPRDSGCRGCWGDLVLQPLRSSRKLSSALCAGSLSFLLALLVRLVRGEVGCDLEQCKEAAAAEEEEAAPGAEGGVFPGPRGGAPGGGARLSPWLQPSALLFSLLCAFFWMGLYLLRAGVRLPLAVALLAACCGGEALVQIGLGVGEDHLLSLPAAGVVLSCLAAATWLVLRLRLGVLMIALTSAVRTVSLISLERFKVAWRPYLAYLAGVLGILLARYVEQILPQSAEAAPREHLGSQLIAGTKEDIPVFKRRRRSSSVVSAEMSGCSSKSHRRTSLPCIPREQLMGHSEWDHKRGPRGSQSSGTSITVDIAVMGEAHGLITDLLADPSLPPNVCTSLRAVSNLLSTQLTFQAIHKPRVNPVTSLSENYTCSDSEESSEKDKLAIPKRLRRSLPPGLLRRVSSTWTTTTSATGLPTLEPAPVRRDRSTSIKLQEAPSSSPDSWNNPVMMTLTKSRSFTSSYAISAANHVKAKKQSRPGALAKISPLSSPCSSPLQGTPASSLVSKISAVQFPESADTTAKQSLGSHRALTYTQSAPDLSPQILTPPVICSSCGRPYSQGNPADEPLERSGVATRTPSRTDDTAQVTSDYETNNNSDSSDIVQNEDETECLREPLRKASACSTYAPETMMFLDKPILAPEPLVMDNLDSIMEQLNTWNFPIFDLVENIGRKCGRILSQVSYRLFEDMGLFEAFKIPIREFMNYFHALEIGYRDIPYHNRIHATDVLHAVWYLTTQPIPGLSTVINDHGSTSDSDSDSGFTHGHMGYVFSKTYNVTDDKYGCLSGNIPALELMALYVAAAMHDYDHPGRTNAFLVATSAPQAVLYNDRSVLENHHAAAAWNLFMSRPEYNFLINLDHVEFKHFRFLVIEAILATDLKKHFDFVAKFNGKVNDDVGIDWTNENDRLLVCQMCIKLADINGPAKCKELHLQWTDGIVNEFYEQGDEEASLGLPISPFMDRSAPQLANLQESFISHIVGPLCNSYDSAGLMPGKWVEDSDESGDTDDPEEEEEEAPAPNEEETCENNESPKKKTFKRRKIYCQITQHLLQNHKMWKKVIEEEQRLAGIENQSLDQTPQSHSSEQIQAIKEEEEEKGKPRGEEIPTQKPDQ

[29] = molecular target: T14, Platelet Activating Factor (PAF) (Homo sapiens, UniProt P25105); test: Radioligand binding panel (Table S1); conditions: 10 μM T1-11, n 2
T14 construct: purchased MDS Pharma Services Taiwan
T14 sequence (P25105 whole entry): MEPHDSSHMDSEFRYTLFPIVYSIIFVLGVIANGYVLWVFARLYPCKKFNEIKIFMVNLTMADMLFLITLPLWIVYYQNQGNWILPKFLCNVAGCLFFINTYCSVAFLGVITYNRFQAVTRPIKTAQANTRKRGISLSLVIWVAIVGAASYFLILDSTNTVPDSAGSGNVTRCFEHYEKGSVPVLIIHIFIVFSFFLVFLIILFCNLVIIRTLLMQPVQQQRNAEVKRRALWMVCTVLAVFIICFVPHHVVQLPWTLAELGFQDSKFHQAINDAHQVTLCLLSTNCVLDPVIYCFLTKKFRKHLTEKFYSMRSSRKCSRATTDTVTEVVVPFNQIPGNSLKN

[30] = molecular target: T15, hERG potassium channel (Homo sapiens, UniProt Q12809); test: Radioligand binding panel (Table S1); conditions: 10 μM T1-11, n 2
T15 construct: purchased MDS Pharma Services Taiwan

[31] = system: Progesterone; test: Radioligand binding panel (Table S1); set-up: species or system bovine; conditions: 10 μM T1-11, n 2
[32] = molecular target: T16, Serotonin (5-Hydroxytryptamine) 5-HT6 (Homo sapiens, UniProt P50406); test: Radioligand binding panel (Table S1); conditions: 10 μM T1-11, n 2
T16 construct: purchased MDS Pharma Services Taiwan
T16 sequence (P50406 whole entry): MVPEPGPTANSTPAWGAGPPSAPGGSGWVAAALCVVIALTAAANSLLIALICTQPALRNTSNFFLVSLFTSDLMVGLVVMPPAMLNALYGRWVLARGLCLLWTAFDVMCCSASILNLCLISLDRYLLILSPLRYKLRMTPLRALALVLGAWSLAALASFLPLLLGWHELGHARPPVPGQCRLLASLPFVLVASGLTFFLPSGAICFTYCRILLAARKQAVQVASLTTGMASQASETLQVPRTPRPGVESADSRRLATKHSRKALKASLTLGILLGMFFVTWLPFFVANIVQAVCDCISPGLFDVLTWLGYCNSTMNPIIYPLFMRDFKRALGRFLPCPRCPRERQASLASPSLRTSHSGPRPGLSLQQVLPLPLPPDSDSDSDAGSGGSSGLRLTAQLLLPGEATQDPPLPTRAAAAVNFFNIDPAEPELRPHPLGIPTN

[33] = system: Sodium Channel, Site 2; test: Radioligand binding panel (Table S1); set-up: species or system rat; conditions: 10 μM T1-11, n 2
[34] = system: Transforming Growth Factor-β (TGF-β); test: Radioligand binding panel (Table S1); set-up: species or system mouse; conditions: 10 μM T1-11, n 2
[35] = molecular target: T17, Transporter, Norepinephrine (NET) (Homo sapiens, UniProt P23975); test: Radioligand binding panel (Table S1); conditions: 10 μM T1-11, n 2
T17 construct: purchased MDS Pharma Services Taiwan
T17 sequence (P23975 whole entry): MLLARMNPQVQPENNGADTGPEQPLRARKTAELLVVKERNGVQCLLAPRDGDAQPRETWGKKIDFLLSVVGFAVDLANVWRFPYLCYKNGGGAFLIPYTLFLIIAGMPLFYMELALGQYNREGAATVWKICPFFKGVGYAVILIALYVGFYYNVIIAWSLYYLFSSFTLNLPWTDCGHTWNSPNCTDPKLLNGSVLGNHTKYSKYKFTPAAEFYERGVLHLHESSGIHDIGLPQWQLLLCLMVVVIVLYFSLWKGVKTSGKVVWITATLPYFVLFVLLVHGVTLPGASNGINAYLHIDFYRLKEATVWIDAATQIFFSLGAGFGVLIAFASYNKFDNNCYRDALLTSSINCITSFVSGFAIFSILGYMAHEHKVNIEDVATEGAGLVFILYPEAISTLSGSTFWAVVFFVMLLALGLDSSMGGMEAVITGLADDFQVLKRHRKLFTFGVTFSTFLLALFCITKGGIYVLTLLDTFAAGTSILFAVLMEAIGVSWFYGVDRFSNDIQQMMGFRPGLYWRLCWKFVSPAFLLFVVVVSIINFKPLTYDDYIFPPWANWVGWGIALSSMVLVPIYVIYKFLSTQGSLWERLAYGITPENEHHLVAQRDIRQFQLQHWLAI

[36] = molecular target: T18, Vasopressin V1A (Homo sapiens, UniProt P37288); test: Radioligand binding panel (Table S1); conditions: 10 μM T1-11, n 2
T18 construct: purchased MDS Pharma Services Taiwan

[37] = molecular target: T19, A2AR (Mus musculus, UniProt Q60613); test: cAMP level in the brain after intraperitoneal injection; assay type: in vivo; conditions: single intraperitoneal injection 5 mg/kg body weight, 60 min, wildtype and A2AR knockout mice
T19 construct: Brain tissues were carefully removed, and homogenized in 1 ml of assay buffer; from tissue; host or cells: brain of C57BL6 mice (in vivo dosing)
Description: C57BL6 mice (8 weeks old) were intraperitoneally (i.p.) administrated with T1-11 (5 mg/kg body weight, n = 4) or vehicle for 60 min. Brain tissues were carefully removed, and homogenized in 1 ml of assay buffer (25 mM Tris (pH 8), 1 mM EGTA, 1 mM MgCl2, […], […], 10 nM okadaic acid, 1× EDTA free proteinase inhibitor cocktail (Roche), 0.5 mM IBMX, and […]). Trichloroacetic acid (6%, final concentration) was then added to the lysate to precipitate proteins. The cAMP level in the supernatant was analyzed as previously described.

Compound: OC[C@H]1O[C@@H](n2cnc3c(NCc4ccc(O)cc4)ncnc32)[C@H](O)[C@@H]1O [T1-11, N ^6-(4-hydroxybenzyl)adenine riboside]
- % Inhibition [1]: 2%
- inhibition at 10 µM [2]: 21%
- inhibition at 10 µM [3]: -9%
- inhibition at 10 µM [4]: 15%
- % Inhibition [5]: -8%
- inhibition at 10 µM [6]: -3%
- % Inhibition [7]: 10%
- % Inhibition [8]: -2%
- inhibition at 10 µM [9]: 0%
- inhibition at 10 µM [10]: 13%
- inhibition at 10 µM [11]: 2%
- % Inhibition [12]: 4%
- inhibition at 10 µM [13]: -10%
- % Inhibition [14]: -9%
- inhibition at 10 µM [15]: 7%
- % Inhibition [16]: 10%
- % Inhibition [17]: 10%
- % Inhibition [18]: 10%
- % Inhibition [19]: 3%
- % Inhibition [20]: 4%
- inhibition at 10 µM [21]: 9%
- inhibition at 10 µM [22]: -2%
- inhibition at 10 µM [23]: 0%
- % Inhibition [24]: -7%
- inhibition at 10 µM [25]: 4%
- % Inhibition [26]: 6%
- % Inhibition [27]: -13%
- inhibition at 10 µM [28]: 0%
- inhibition at 10 µM [29]: 7%
- inhibition at 10 µM [30]: -2%
- % Inhibition [31]: 9%
- inhibition at 10 µM [32]: 12%
- % Inhibition [33]: 3%
- % Inhibition [34]: -1%
- inhibition at 10 µM [35]: 6%
- inhibition at 10 µM [36]: 0%
- cAMP levels in the brain [37]: increased cAMP levels in the brains of wildtype, but not A2AR knockout

Source: article PMC3119665, “A New Drug Design Targeting the Adenosinergic System for Huntington's Disease” (PLoS ONE, 2011)
